Where a SMILES comes first, the peptide text is derived from it. [ ]: non-standard residue; d: D form.
Tested on: BT188 glioma stem cells
Assay: Peptide uptake in BT188 (BΔg-high) versus BT145 (BΔg-low) glioma stem cells, fluorescence imaging
Assay type: cell-based, human
Details: fluorescein-labeled peptides, 5 μM
Source text: FIGS. 3A-I. Peptide characterization for BΔg specificity in glioma stem cells. (a) Table summary listing the properties of 7 peptides (composed of 8 D-amino acid residues, SEQ ID NOs:3-9, in order of appearance) that were isolated from the OBOC library screen. MW=molecular weight; KD=Kyte-Doolittle scale for amino acid hydropathy (positive scores indicate […]) (Kyte and Doolittle, J. Mol. Biol. 157, 105-132 (1982)). (b) Chemical structure showing the linkage between the peptide and FITC. (c) Western blot analysis showing the level of BΔg and Bcan in human embryo kidney (HEK) cells, and Bcan-overexpressing HEK cells (HEK-Bcan). […] Each group was normalized to a no-blocking (vehicle) control. Statistics were performed using multiple t-tests, and significance was measured in comparison to each vehicle control (p<0.0001). (e) Uptake of fluorescein-labeled BTP-2, 7, 8, 9, and 10 (at 5 μM conc.) in BT188 (BΔg-high) or BT145 (BΔg-low) glioma stem cells (GSCs). Western blot analysis on the top right confirms the BΔg expression level. […] Statistics were performed using the two-way ANOVA and Tukey's Multiple Comparison test. (f) Chemical structure showing the linkage between the peptide and Cy5.5 dye. (g) Western blot analysis showing the expression of BΔg in GBM-6 cells, with negligible BΔg level in astrocytes or neural progenitor cells (NPC). (h) Graph showing the cell uptake ranking of the top 3 peptide candidates, BTP-7, 8 and 9 in GBM-6 cells as determined by flow cytometry analysis with s.d. error bars (5 μM conc.; nevents=20,000 cells; nexperiment=5). Each group is normalized to the control scramble peptide (Scr-8). Statistics were performed using the one-way ANOVA and Tukey's Multiple Comparison test (significance were measured in comparison to the Scr-8 control). (i) Bar graph showing the uptake of BTP-7, 8 and 9 in GBM-6 cells and NPC with 95% confidence interval error bars (1 μM conc.; nevents=20,000 cells). Statistics were performed using the two-way ANOVA and Sidak's Multiple Comparison test.

CC[C@@H](C)[C@@H](NC(=O)[C@H](N)[C@H](C)O)C(=O)N[C@H](CCCNC(=N)N)C(=O)N[C@H](CCCCN)C(=O)N[C@H](CC(C)C)C(=O)N[C@@H](C(=O)N[C@H](CCCNC(=N)N)C(=O)N[C@H](Cc1c[nH]cn1)C(N)=O)C(C)C [BTP-8] (H-[dT][dI][dR][dK][dL][dV][dR][dH]-NH2; N-terminus and C-terminus assumed)
size of the difference in uptake between BT188 and BT145 GSCs (ranking): largest and most significant difference
uptake in BT188 GSCs compared with BT145 GSCs: greater uptake

— US12527835B2, “Brevican-binding peptides for brain tumor imaging” (The Brigham and Women's Hospital, Inc., priority 2018, dated 2026)
